# What was measured:
# [1] = target: T1, RamR (Salmonella typhimurium, UniProt Q8ZR43); assay: Biosensor response assay, wild-type RamR with Pramr-GFP reporter; type: cell-based; details: pReg-RamR + Pramr-GFP, upon induction
# T1 construct: expressed in transfected cells; host or cells: E. coli DH10B
# From the text: The wild-type RamR sensor was constitutively expressed on one plasmid (pReg-RamR) in parallel with another plasmid bearing the regulator's cognate promoter upstream of the sfGFP gene (Pramr-GFP). […] To better understand this promiscuous binding activity, norbelladine was docked within the ligand binding pocket of RamR using GNINA 1.0 […], and a conformational pose was identified whereby the phenol moiety of norbelladine forms hydrogen bonds with S137 and T85, while the catechol moiety forms a hydrogen bond with K63.
# The pReg-RamR and Pramr-GFP plasmids were co-transformed into DH10B cells, which were then plated on LB agar plates containing appropriate antibiotics. Three separate colonies were picked for each transformation and were grown overnight. The following day, 20 μL of each culture was then used to inoculate six separate wells in a 2-mL 96-deep-well plate (Corning, P-DW-20-C-S) sealed with an AeraSeal film (Excel Scientific) containing 900 μL LB medium, one for each test ligand and a solvent control. […] One hundred microliters of the cell resuspension for each condition was transferred to a 96-well microtiter plate (Corning, 3904), from which the fluorescence (excitation, 485 nm; emission, 509 nm) and absorbance (600 nm) were measured using the Tecan Infinite M1000 plate reader.
# [2] = target: T2, 4NB2.1 biosensor (Salmonella typhimurium, UniProt Q8ZR43, C134D/K63T/L66M/S137G); assay: Dose response of the evolved 4NB2.1 biosensor to 4NB (fluorescence, RFU/OD); type: cell-based, Escherichia coli
# T2 construct: expressed in transfected cells; host or cells: E. coli DH10B
# Experimental: For sensor variant validation, the subcloned pReg-RamR vectors expressing the sensor variants were transformed into DH10B cells expressing Pramr-GFP. These cultures were then assayed, as described in Biosensor response assay, using eight different concentrations of the 4NB.
# Glycerol stocks (20% glycerol) of strains containing the plasmids of interest were inoculated into 1 ml LB medium and grown overnight at 37° C. Twenty microliters of overnight culture was seeded into 900 μl LB medium containing ampicillin and chloramphenicol in a 2-ml 96-deep-well plate sealed with an AeraSeal film. Following growth at 37° C. and 250 r.p.m. for 2 h, cultures were induced with 100 μl of an LB medium solution containing appropriate antibiotics and the inducer molecule dissolved in 10 μl DMSO. Cultures were grown for an additional 4 h at 37° C. and 250 r.p.m. and subsequently centrifuged (3,500 g, 4° C., 10 min). Supernatant was removed, and cell pellets were resuspended in 1 ml PBS. The cell resuspension (100 μl) for each condition was transferred to a 96-well microtiter plate, from which the fluorescence (excitation, 485 nm; emission, 509 nm) and absorbance (600 nm) were measured using the Tecan Infinite M1000 plate reader.
# Bar graphs, fluorescence and growth curves, dose-response functions were all plotted in Python 3.6.9 using Matplotlib. Dose-response curves and EC50 values were estimated by fitting to the Hill equation y=d+(a−d)xb(cb+xb)−1 (where y=output signal, b=Hill coefficient, x=ligand concentration, d=background signal, a=maximum signal and c=EC50), with the scipy.optimize.curve_fit library in Python.
# T2 sequence (Q8ZR43 other isoform, or with tags, fused parts or gaps K63T/L66M/C134D/S137G): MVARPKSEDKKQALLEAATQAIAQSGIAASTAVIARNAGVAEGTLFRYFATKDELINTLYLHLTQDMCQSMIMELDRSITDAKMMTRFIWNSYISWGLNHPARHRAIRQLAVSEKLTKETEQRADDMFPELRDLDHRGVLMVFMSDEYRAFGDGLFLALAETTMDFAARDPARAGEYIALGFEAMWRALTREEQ
# T1 sequence (Q8ZR43 2-193, added parts left off): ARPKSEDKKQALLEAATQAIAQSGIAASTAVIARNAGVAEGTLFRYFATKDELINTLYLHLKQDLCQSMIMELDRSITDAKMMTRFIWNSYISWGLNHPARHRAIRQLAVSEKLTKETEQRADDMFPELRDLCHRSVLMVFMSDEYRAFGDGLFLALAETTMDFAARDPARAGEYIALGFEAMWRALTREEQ
SMILES,increase in fluorescence [1] [fold],4NB2.1 biosensor measurement ([2]; 1 uM 4NB supplemented into media) [RFU/OD],4NB2.1 biosensor measurement ([2]; 2.5 uM 4NB supplemented into media) [RFU/OD],4NB2.1 biosensor measurement ([2]; 5 uM 4NB supplemented into media) [RFU/OD],4NB2.1 biosensor measurement ([2]; 10 uM 4NB supplemented into media) [RFU/OD],4NB2.1 biosensor measurement ([2]; 25 uM 4NB supplemented into media) [RFU/OD],4NB2.1 biosensor measurement ([2]; 50 uM 4NB supplemented into media) [RFU/OD],4NB2.1 biosensor measurement ([2]; 100 uM 4NB supplemented into media) [RFU/OD],4NB2.1 biosensor measurement ([2]; 250 uM 4NB supplemented into media) [RFU/OD],4NB2.1 biosensor measurement ([2]; 500 uM 4NB supplemented into media) [RFU/OD],4NB2.1 biosensor measurement ([2]; 1000 uM 4NB supplemented into media) [RFU/OD],EC50 ([2]; biosensor developed by directed evolution) [µM]
Oc1ccc(CCNCc2ccc(O)c(O)c2)cc1 [norbelladine],4.4,,,,,,,,,,,
"COc1ccc(CNCCc2ccc(O)cc2)cc1O [4NB, 4-O'Methylnorbelladine]",3.8,200.81,240.62,395.69,944.28,5648.44,21194.72,43800.94,64506.12,67029.6,62040.21,20

# From patent US20240336900A1, “METHODS AND COMPOSITIONS RELATED TO MODIFIED METHYLTRANSFERASES AND ENGINEERED BIOSENSORS” (BOARD OF REGENTS, THE UNIVERSITY OF TEXAS SYSTEM, priority 2023, published 2024)
